pIC50: −log10 of the molar value.
Assays:
A2780 cells = experiment: Cell Viability Assay (ATPlite 1step), A2780; assay type: cell-based; conditions: Homo sapiens, 72 hours; for percent inhibition of cell viability at 4 µM: A2780, 4 uM compound, read-out: Cell Viability % inhibition A2780 (4 uM Cpd); for percent inhibition of cell viability at 20 µM: A2780, 20 uM compound, read-out: Cell Viability % inhibition A2780 (20 uM Cpd)
Protocol: (§1) Cell Viability Assay Protocol
(§2) Cells were trypsinized, counted, and re-seeded into a 384-well tissue culture plate at 1000 cells per well in […] media. Cells were incubated at 37° C. in an atmosphere of 5% CO2 for 24 hours. Experimental compounds, initially dissolved in DMSO and diluted further in media were added to the wells and incubated for 72 hours. Cell viability was measured using the ATPlite 1step Luminescence Detection Assay system (Perkin Elmer) as described in the Assay kit instructions.
(§3) Cell Culture Lines and Media: (1) A2780 cells were cultured in RPMI media with 10% FBS and 1% antibiotics. Cells were typically split every 3-5 days at a 1:10 dilution; (2) PC3 cells were cultured in RPMI media with 10% FBS and 1% antibiotics. Cells were typically split every 3-5 days at a 1:4 dilution; (3) MCF-7 cells were grown in K-12F media with 10% FBS and 1% antibiotics. Cells were typically split every 3-5 days at a 1:10 dilution.

MCF-7 cells = experiment: Cell Viability Assay (ATPlite 1step), MCF-7; assay type: cell-based; conditions: Homo sapiens, MCF7, 72 hours; for percent inhibition of cell viability at 4 µM: MCF-7, 4 uM compound, read-out: Cell Viability % inhibition MCF-7 (4 uM Cpd); for percent inhibition of cell viability at 20 µM: MCF-7, 20 uM compound, read-out: Cell Viability % inhibition MCF-7 (20 uM Cpd)
Protocol: as §1, §2, §3

PC3 cells = experiment: Cell Viability Assay (ATPlite 1step), PC3; assay type: cell-based; conditions: Homo sapiens, PC-3, 72 hours; for percent inhibition of cell viability at 4 µM: PC3, 4 uM compound, read-out: Cell Viability % inhibition PC3 (4 uM Cpd); for percent inhibition of cell viability at 20 µM: PC3, 20 uM compound, read-out: Cell Viability % inhibition PC3 (20 uM Cpd)
Protocol: as §1, §2, §3

porcine neuronal tubulin = experiment: Tubulin Polymerization Assay; assay type: biochemical; conditions: porcine tubulin 2.0 mg/ml, 37° C., fluorescence; read-out: IC50 (tubulin polymerization, from Vmax)
Excerpt: Tubulin Polymerization Assay
The Tubulin Polymerization Assay uses porcine neuronal tubulin and measurements are based on fluorescence enhancement due to the incorporation of a fluorescent reporter into microtubules as polymerization occurs. The assay generates a polymerization curve representing the three phases of microtubule formation (nucleation, growth and equilibrium). IC50 values for tested compounds can be generated from the observed polymerization curves.
Procedure: All compounds dilutions (in DMSO) were prepared prior to the following steps. A Molecular Devices M2 plate reader was set to 37° C. Once the internal temperature of the plate reader reached 37° C. a 96 well plate (Corning Costar, at. #3686) was placed in the fluorimeter and allowed to warm to 37° C. for 30 minutes. A total of 10 mg of porcine tubulin was resuspended in […] of Polymerization Buffer [Buffer 1 (80 mM PIPES pH 6.9, 2.0 mM MgCl2, 0.5 mM EGTA, 1.0 mM GTP and 10 μM fluorescent reporter) supplemented with 20% glycerol] to generate a 2.0 mg/ml tubulin stock and this was kept on ice. The 50× compound stocks in 100% DMSO were spotted 1 μl/well in duplicate into the wells of the 96-well plate at 37° C. and allowed to re-warm for 5 minutes at 37° C. During this incubation the 2.0 mg/ml tubulin stock was placed in a disposable plastic trough and allowed to warm briefly at room temperature. To initiate the reaction, 50 μl/well of 2.0 mg/ml tubulin in Polymerization Buffer was added to each well using a multi-channel pipettor and the fluorescence measurements were started immediately.
The maximal velocity (Vmax) of tubulin polymerization was determined using linear regression of the averaged fluorescence data at each time point using GraphPad Prism 5.0 software. The Vmax determinations for each compound at each concentration were then normalized to reactions that contained DMSO (2% final concentration) but no test compounds. This converted the data to % Activity, which refers to the percent of the Vmax of an uninhibited reaction. The concentration response curves were then plotted as the % Activity versus the Log 10 of the compound concentration in micromolar and fit by non-linear regression to a 4-parameter sigmoidal dose-response equation using GraphPad Prism 5.0 software to determine the IC50 for each compound.

Compound | percent inhibition of cell viability at 4 µM (A2780 cells) [%] | percent inhibition of cell viability at 20 µM (A2780 cells) [%] | percent inhibition of cell viability at 4 µM (MCF-7 cells) [%] | percent inhibition of cell viability at 20 µM (MCF-7 cells) [%] | percent inhibition of cell viability at 4 µM (PC3 cells) [%] | percent inhibition of cell viability at 20 µM (PC3 cells) [%] | pIC50 (porcine neuronal tubulin)
O=C(Nc1ccc(-c2ccccc2)cn1)c1cncnc1 [Compound 1] | 84.2 | 93.6 | 46.1 | 68.4 | 59.1 | 72.2 | 5.85
O=C(Nc1ccc(-c2cccc(Cl)c2)cn1)c1cncnc1 [Compound 3, N-[5-(3-chlorophenyl)pyridin-2-yl]pyrimidine-5-carboxamide] | 84.8 | 90.2 | 50.6 | 56.8 | 60.9 | 68.3 | 5.84
O=C(Nc1ccc(-c2cccc(C3CC3)c2)cn1)c1cncnc1 [Compound 16, N-[5-(3-cyclopropylphenyl)pyridin-2-yl]pyrimidine-5-carboxamide] | 90.4 | 92.1 | 70.2 | 78.4 | 73.7 | 77.7 | 6.32
Cc1ncc(C(=O)Nc2ccc(-c3cccc(C4CC4)c3)cn2)cn1 [Compound 23, N-[5-(3-cyclopropylphenyl)pyridin-2-yl]-2-methylpyrimidine-5-carboxamide] | 71.5 | 80.3 |  |  | 53.7 | 66.2 | 6.05
Cc1ncc(C(=O)Nc2ccc(-c3cccc(OC4CC4)c3)cn2)cn1 [Compound 27, N-{5-[3-(cyclopropyloxy)phenyl]pyridin-2-yl}-2-methylpyrimidine-5-carboxamide] | 77.3 | 77.4 |  |  | 58.3 | 69.6 | 6.17
Cc1ncc(C(=O)Nc2ccc(-c3cccc(NC4CC4)c3)cn2)cn1 [Compound 31, N-{5-[3-(cyclopropylamino)phenyl]pyridin-2-yl}-2-methylpyrimidine-5-carboxamide] | 70.9 | 71.2 |  |  | 51.8 | 43.7 | 6.49
Cc1ccc(C(=O)Nc2ccc(-c3cccc(C4COC4)c3)cn2)cn1 [Compound 44, 6-methyl-N-{5-[3-(oxetan-3-yl)phenyl]pyridin-2-yl}pyridine-3-carboxamide] | 86.5 | 86.1 |  |  | 81.8 | 84.6 | 6.52
Cc1ncc(C(=O)Nc2ccc(-c3cc(N4CCN(C)CC4)cc(S(=O)(=O)C4CC4)c3)cn2)cn1 [Compound 49, N-{5-[3-cyclopropylsulfonyl-5-(4-methylpiperazin-1-yl)phenyl]pyridin-2-yl}-2-methylpyrimidine-5-carboxamide] | 16.9 | 59.5 | 28.1 | 48.3 | 19.4 | 39.7 | 
Cc1ncc(C(=O)Nc2ccc(-c3cc(N4CCN(C)CC4)cc(S(=O)(=O)C4CC4)c3)c(C)n2)cn1 [Compound 50, N-{5-[3-cyclopropylsulfonyl-5-(4-methylpiperazin-1-yl)phenyl]-6-methylpyridin-2-yl}-2-methylpyrimidine-5-carboxamide] | 7.3 | 62.6 | 10 | 40.7 | 39.2 | 54.7 | 
Cc1ncc(C(=O)Nc2ccc(-c3cc(NC4CC4)cc(N4CCN(C)CC4)c3)cn2)cn1 [Compound 51, N-{5-[3-cycopropylamino-5-(4-methylpiperazin-1-yl)phenyl]pyridin-2-yl}-2-methylpyrimidine-5-carboxamide] | 6.8 | 76 | 22.9 | 49.5 | 17.3 | 65.7 | 
Cc1ncc(C(=O)Nc2ccc(-c3cc(NC4CC4)cc(N4CCN(C)CC4)c3)c(C)n2)cn1 [Compound 52, N-{5-[3-cyclopropylamino-5-(4-methylpiperazin-1-yl)phenyl]-6-methylpyridin-2-yl}-2-methylpyrimidine-5-carboxamide] | 8 | 69.5 | -1.6 | 22.2 | 35 | 52.5 | 
Cc1ncc(C(=O)Nc2ccc(-c3cc(C4CC4)cc(N4CCN(C)CC4)c3)cn2)cn1 [Compound 53] | 15.1 | 74.8 | 11.3 | 39.6 | 12.3 | 67.1 | 
Cc1ncc(C(=O)Nc2ncc(-c3cc(Cl)cc(N4CCNCC4)c3)cc2F)cn1 [Compound 54, N-{5-[3-chloro-5-(piperazin-1-yl)phenyl]-3-Fluoropyridin-2-yl}-2-methylpyrimidine-5-carboxamide] | -6.4 | 64.6 | 23.8 | 42.6 | 0.2 | 34.8 | 
Cc1ncc(C(=O)Nc2ccc(-c3csc(C)c3)cn2)cn1 [Compound 62, 2-methyl-N-[5-(5-methylthiophen-3-yl)pyridin-2-yl]pyrimidine-5-carboxamide] | 85.2 | 89.9 | 59.4 | 67 | 54.8 | 65.1 | 
Cc1ncc(C(=O)Nc2ncc(-c3cccc(NC4CC4)c3)cc2F)cn1 [Compound 68, N-{5-[3-(cyclopropylamino)phenyl]-3-fluoropyridin-2-yl}-2-methylpyrimidine-5-carboxamide] | 87.1 | 89 | 54.3 | 59.3 | 58.4 | 64.4 | 
CC[C@]1(O)C[C@@H]2CN(CCc3c([nH]c4ccccc34)[C@@](C(=O)OC)(c3cc4c(cc3OC)N(C)[C@H]3[C@@](O)(C(=O)OC)[C@H](OC(C)=O)[C@]5(CC)C=CCN6CC[C@]43[C@@H]65)C2)C1 [Vinblastine, reference compound] |  |  |  |  |  |  | 6.70
CC[C@]1(O)C[C@H]2CN(CCc3c([nH]c4ccccc34)[C@@](C(=O)OC)(c3cc4c(cc3OC)N(C=O)[C@H]3[C@@](O)(C(=O)OC)[C@H](OC(C)=O)[C@]5(CC)C=CCN6CC[C@]43[C@@H]65)C2)C1 [Vincristine, reference compound] |  |  |  |  |  |  | 6.17
